“And” between values parts separate entries of the source, which are not always exact repeats. Equal values may be shown once. Inconclusive results and toxic doses are left out.
Test system: L1210 leukemia ip in BDF1 mice, survival T/C
Assay: NCI In Vivo Anticancer Drug Screen. Data for tumor model L1210 Leukemia (intraperitoneal) in B6D2F1 (BDF1) mice
Details: higher = longer survival
Method in brief: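 Survival endpoint. Drug-treated group vs vehicle group, expressed as T divided by C. Tumor passaged by transplantation.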

[1] = endpoint: mean survival time, dose: 100.0 mg/kg/injection, schedule: Q01DX001 (ip), vehicle: saline
[2] = endpoint: mean survival time, dose: 200.0 mg/kg/injection, schedule: Q01DX001 (ip), vehicle: saline

`O=C(C1=C(C(=O)c2ccccc2)C2C=CC1C2)c1ccccc1` was tested, and the T/C (endpoint: mean survival time, dose: 75.0 mg/kg/injection, schedule: Q04DX003 (ip), vehicle: Klucel (hydroxypropylcellulose) (HPC)) was 96 % of control, the T/C (endpoint: mean survival time, dose: 150.0 mg/kg/injection, schedule: Q04DX003 (ip), vehicle: Klucel (hydroxypropylcellulose) (HPC)) was 94 % of control and the T/C (endpoint: mean survival time, dose: 300.0 mg/kg/injection, schedule: Q04DX003 (ip), vehicle: Klucel (hydroxypropylcellulose) (HPC)) was 89 % of control.
`Cc1ccc(S(=O)(=O)OCCCCl)cc1` was tested, and the T/C (endpoint: mean survival time, dose: 100.0 mg/kg/injection, schedule: Q01DX001 (ip), vehicle: carboxymethylcellulose (CMC)) was 112 % of control, the T/C (endpoint: mean survival time, dose: 200.0 mg/kg/injection, schedule: Q01DX001 (ip), vehicle: carboxymethylcellulose (CMC)) was 106 % of control and the T/C (endpoint: mean survival time, dose: 400.0 mg/kg/injection, schedule: Q01DX001 (ip), vehicle: carboxymethylcellulose (CMC)) was 101 % of control.
`CC1(C)N=C(N)N=C(N)N1c1cccc(CN)c1` was tested, and the T/C (endpoint: mean survival time, dose: 25.0 mg/kg/injection, schedule: Q01DX009 (ip), vehicle: saline) was 101 % of control, the T/C (endpoint: mean survival time, dose: 25.0 mg/kg/injection, schedule: Q04DX003 (ip), vehicle: saline) was 101 % of control and the T/C (endpoint: mean survival time, dose: 50.0 mg/kg/injection, schedule: Q01DX009 (ip), vehicle: saline) was 102 % of control and 103 % of control. The T/C (endpoint: mean survival time, dose: 50.0 mg/kg/injection, schedule: Q04DX003 (ip), vehicle: saline) was 103 % of control, the T/C (endpoint: mean survival time, dose: 100.0 mg/kg/injection, schedule: Q01DX009 (ip), vehicle: saline) was 98 % of control and 86 % of control and the T/C (endpoint: mean survival time, dose: 100.0 mg/kg/injection, schedule: Q04DX003 (ip), vehicle: saline) was 102 % of control and 105 % of control.
`COc1c(C(C)(C)C)cc(/C=C(\NC(=O)c2ccccc2)C(=O)O)cc1C(C)(C)C` was tested, and the T/C (endpoint: mean survival time, dose: 100.0 mg/kg/injection, schedule: Q01DX001 (ip), vehicle: Klucel (hydroxypropylcellulose) (HPC)) was 98 % of control and the T/C (endpoint: mean survival time, dose: 200.0 mg/kg/injection, schedule: Q01DX001 (ip), vehicle: Klucel (hydroxypropylcellulose) (HPC)) was 92 % of control.
In the case of `N=C(N)c1ccc(N=NNc2ccc(C(=N)N)cc2)cc1` (tested in a mixture with another compound), the T/C [1] is reported as 93 % of control and the T/C [2] is reported as 98 % of control.
`CC(=O)C1CCCC(=O)/C=C/C(=O)O1` (configuration not stated) was tested, and the T/C (endpoint: mean survival time, dose: 100.0 mg/kg/injection, schedule: Q04DX002 (ip), vehicle: Klucel (hydroxypropylcellulose) (HPC)) was 92 % of control and the T/C (endpoint: mean survival time, dose: 200.0 mg/kg/injection, schedule: Q04DX002 (ip), vehicle: Klucel (hydroxypropylcellulose) (HPC)) was 100 % of control.
With `Cc1cc(C)c(-c2c(C)cc(C)c(N)c2C)c(C)c1N` the T/C (endpoint: mean survival time, dose: 12.5 mg/kg/injection, schedule: Q01DX009 (ip), vehicle: Klucel (hydroxypropylcellulose) (HPC)) was 90 % of control, the T/C (endpoint: mean survival time, dose: 25.0 mg/kg/injection, schedule: Q01DX009 (ip), vehicle: Klucel (hydroxypropylcellulose) (HPC)) was 93 % of control and the T/C (endpoint: mean survival time, dose: 50.0 mg/kg/injection, schedule: Q01DX009 (ip), vehicle: Klucel (hydroxypropylcellulose) (HPC)) was 103 % of control. The T/C (endpoint: mean survival time, dose: 100.0 mg/kg/injection, schedule: Q04DX003 (ip), vehicle: Klucel (hydroxypropylcellulose) (HPC)) was 109 % of control, the T/C (endpoint: mean survival time, dose: 200.0 mg/kg/injection, schedule: Q04DX003 (ip), vehicle: Klucel (hydroxypropylcellulose) (HPC)) was 95 % of control and the T/C (endpoint: mean survival time, dose: 400.0 mg/kg/injection, schedule: Q04DX003 (ip), vehicle: Klucel (hydroxypropylcellulose) (HPC)) was 97 % of control.
In the case of `COc1ccc(CC2c3cc(OC)c(OC)cc3CC[N+]2(C)C)cc1OC` (configuration not stated), the T/C (endpoint: mean survival time, dose: 12.5 mg/kg/injection, schedule: Q01DX009 (ip), vehicle: saline sonified) is reported as 103 % of control, the T/C (endpoint: mean survival time, dose: 25.0 mg/kg/injection, schedule: Q01DX009 (ip), vehicle: saline sonified) is reported as 108 % of control and the T/C (endpoint: mean survival time, dose: 50.0 mg/kg/injection, schedule: Q01DX001 (ip), vehicle: Klucel (hydroxypropylcellulose) (HPC)) is reported as 95 % of control. The T/C (endpoint: mean survival time, dose: 50.0 mg/kg/injection, schedule: Q01DX009 (ip), vehicle: saline sonified) was 102 % of control.
For `CCOc1ccccc1-c1nc2ccccc2s1`, the T/C (endpoint: mean survival time, dose: 100.0 mg/kg/injection, schedule: Q04DX003 (ip), vehicle: DMSO) was 89 % of control, the T/C (endpoint: mean survival time, dose: 200.0 mg/kg/injection, schedule: Q04DX003 (ip), vehicle: DMSO) was 89 % of control and the T/C (endpoint: mean survival time, dose: 400.0 mg/kg/injection, schedule: Q04DX003 (ip), vehicle: DMSO) was 103 % of control.
`N#CC(c1ccc(N)cc1)c1ccc(F)cc1` (configuration not stated) was tested, and the T/C (endpoint: mean survival time, dose: 50.0 mg/kg/injection, schedule: Q01DX001 (ip), vehicle: saline) was 97 % of control, the T/C [1] was 97 % of control and the T/C [2] was 97 % of control.
For `COC1C(O)C(C)OC(OC2C(Oc3cccc4c(O)c5c(=O)oc6ccc(C)c7c(=O)oc(c34)c5c67)OC(C)C(O)C2O)C1O` (configuration not stated), the T/C (endpoint: mean survival time, dose: 1.25 mg/kg/injection, schedule: Q01DX009 (ip), vehicle: saline with Tween-80) was 97 % of control, the T/C (endpoint: mean survival time, dose: 2.5 mg/kg/injection, schedule: Q01DX009 (ip), vehicle: saline with Tween-80) was 123 % of control and the T/C (endpoint: mean survival time, dose: 5.0 mg/kg/injection, schedule: Q01DX009 (ip), vehicle: saline with Tween-80) was 115 % of control. The T/C (endpoint: mean survival time, dose: 12.5 mg/kg/injection, schedule: Q01DX009 (ip), vehicle: carboxymethylcellulose (CMC)) was 108 % of control, the T/C (endpoint: mean survival time, dose: 20.0 mg/kg/injection, schedule: Q01DX009 (ip), vehicle: saline with Tween-80) was 166 % of control and the T/C (endpoint: mean survival time, dose: 25.0 mg/kg/injection, schedule: Q01DX009 (ip), vehicle: carboxymethylcellulose (CMC)) was 108 % of control. For the same compound, the T/C (endpoint: mean survival time, dose: 50.0 mg/kg/injection, schedule: Q01DX009 (ip), vehicle: carboxymethylcellulose (CMC)) was 117 % of control, the T/C (endpoint: mean survival time, dose: 100.0 mg/kg/injection, schedule: Q01DX009 (ip), vehicle: saline with Tween-80) was 121 % of control and the T/C (endpoint: median survival time, dose: 8.0 mg/kg/injection, schedule: Q04DX003 (ip), vehicle: saline with Tween-80) was 106 % of control. The T/C (endpoint: median survival time, dose: 16.0 mg/kg/injection, schedule: Q04DX003 (ip), vehicle: saline with Tween-80) was 110 % of control, the T/C (endpoint: median survival time, dose: 32.0 mg/kg/injection, schedule: Q04DX003 (ip), vehicle: saline with Tween-80) was 114 % of control and the T/C (endpoint: median survival time, dose: 64.0 mg/kg/injection, schedule: Q04DX003 (ip), vehicle: saline with Tween-80) was 114 % of control. For the same compound, the T/C (endpoint: median survival time, dose: 128.0 mg/kg/injection, schedule: Q04DX003 (ip), vehicle: saline with Tween-80) was 110 % of control.
